Test results from patent publication US11034913B2, “Metal working fluid” (Henkel AG & Co. KGaA, priority 2015, dated 2021).

Tests used:
Assay type in all cases: cell-based
[1] = system: Mixed Gram Negative Bacteria; experiment: Mycobacterium challenge, four-week re-inoculation test: mixed Gram-negative bacteria count; conditions: 5 w/w % dilution
Experimental: (§1) A tap water dilution of the metal working fluid for the Mycobacterium challenge was made to a concentration of 5 w/w %. The sample was tested by Biosan Laboratories, in Warren, Mich., USA, an independent commercial biological laboratory, for biostatic activity against Mycobacterium and against mixed Gram-negative bacteria.
(§2) The test method evaluated the effectiveness of antimicrobial agents in controlling Mycobacterium immunogenum in the presence of high background population of Gram-negative and other bacteria responsible for metal working fluid deterioration. Sample metal working fluids including the biostat of Example 5 and antimicrobial agents were prepared at use concentrations. 1% iron chips were added to the diluted metal working fluid samples. Two microbial populations were then introduced at a 1% level: an undefined Gram-negative bacterial inoculum isolated from a contaminated metal working fluid, and an inoculum containing Mycobacterium immunogenum. The inoculated test metal working fluids were incubated at room temperature (22+2° C.) on an orbital shaker for four weeks. During the four week test period, the metal working fluids were evaluated twice weekly for bacterial and mycobacterial contamination before being re-inoculated with both microbial suspensions at 1% concentrations. This re-inoculation method ensured sufficient viable Gram-negative and Mycobacterium levels throughout the test.

[2] = system: Mycobacterium immunogenum; experiment: Mycobacterium challenge, four-week re-inoculation test: Mycobacterium count; conditions: 5 w/w % dilution
Experimental: as §1, §2

[3] = system: mixed Gram-negative bacteria; experiment: Minimum inhibitory concentration testing (biostat candidate screening, Phase 1 and Phase 2; dip slide counts)
[4] = Sample 1, Day 0 (Initial Inoculum)
[5] = Sample 2, Day 0 (Initial Inoculum)
[6] = Phase 1, log bacterial counts at 24 and 48 h versus DCHA standard, scale 0-6, 3 = matches DCHA standard, higher = better

CC(CN)CCCN (stereo not shown) [Example 5, Methylpentamethylene diamine]
Mixed Gram Negative Bacteria count [1, 4]: ~1 × 10^6 cfu/ml | Mixed Gram Negative Bacteria count ([1]; Sample 1, Day 2): <2 cfu/ml | Mixed Gram Negative Bacteria count ([1]; Sample 1, Day 7): <2 cfu/ml | Mixed Gram Negative Bacteria count ([1]; Sample 1, Day 9): <2 cfu/ml | Mixed Gram Negative Bacteria count ([1]; Sample 1, Day 14): <2 cfu/ml | Mixed Gram Negative Bacteria count ([1]; Sample 1, Day 16): <2 cfu/ml | Mixed Gram Negative Bacteria count ([1]; Sample 1, Day 21): <2 cfu/ml | Mixed Gram Negative Bacteria count ([1]; Sample 1, Day 23): <2 cfu/ml | Mixed Gram Negative Bacteria count [1, 5]: ~1 × 10^6 cfu/ml | Mixed Gram Negative Bacteria count ([1]; Sample 2, Day 2): <2 cfu/ml | Mixed Gram Negative Bacteria count ([1]; Sample 2, Day 7): <2 cfu/ml | Mixed Gram Negative Bacteria count ([1]; Sample 2, Day 9): <2 cfu/ml | Mixed Gram Negative Bacteria count ([1]; Sample 2, Day 14): <2 cfu/ml | Mixed Gram Negative Bacteria count ([1]; Sample 2, Day 16): <2 cfu/ml | Mixed Gram Negative Bacteria count ([1]; Sample 2, Day 21): <2 cfu/ml | Mixed Gram Negative Bacteria count ([1]; Sample 2, Day 23): <2 cfu/ml | Mycobacterium immunogenum count [2, 4]: ~1 × 10^5 cfu/ml | Mycobacterium immunogenum count ([2]; Sample 1, Day 2): <2 cfu/ml | Mycobacterium immunogenum count ([2]; Sample 1, Day 7): <2 cfu/ml | Mycobacterium immunogenum count ([2]; Sample 1, Day 9): <2 cfu/ml | Mycobacterium immunogenum count ([2]; Sample 1, Day 14): <2 cfu/ml | Mycobacterium immunogenum count ([2]; Sample 1, Day 16): <2 cfu/ml | Mycobacterium immunogenum count ([2]; Sample 1, Day 21): <2 cfu/ml | Mycobacterium immunogenum count ([2]; Sample 1, Day 23): <2 cfu/ml | Mycobacterium immunogenum count [2, 5]: ~1 × 10^5 cfu/ml | Mycobacterium immunogenum count ([2]; Sample 2, Day 2): <2 cfu/ml | Mycobacterium immunogenum count ([2]; Sample 2, Day 7): <2 cfu/ml | Mycobacterium immunogenum count ([2]; Sample 2, Day 9): <2 cfu/ml | Mycobacterium immunogenum count ([2]; Sample 2, Day 14): <2 cfu/ml | Mycobacterium immunogenum count ([2]; Sample 2, Day 16): <2 cfu/ml | Mycobacterium immunogenum count ([2]; Sample 2, Day 21): <2 cfu/ml | Mycobacterium immunogenum count ([2]; Sample 2, Day 23): <2 cfu/ml | Differential Value Scores, Average ([3]; Phase 1, average of Rounds 1-3, scale 0-6, 3 = matches DCHA standard): 3.3 | Differential Value Scores, Round 1 [3, 6]: 2.5 | Differential Value Scores, Round 2 [3, 6]: 4.5 | Differential Value Scores, Round 3 [3, 6]: 3 | Biostatic efficacy regarding Gram-negative bacteria compared with the DCHA standard ([3]; result in words, 3 wt. % amine in metal working fluid): outperformed DCHA
